Reference: paper PMC3759666, “Post-translational modification and conformational state of Heat Shock Protein 90 differentially affect binding of chemically diverse small molecule inhibitors” (Oncotarget, 2013)

Key:
yeast Hsp90 = target: T1, yeast Hsp90 (Saccharomyces cerevisiae, UniProt P02829); assay: DMS cross-linking of N domain dimers; p23 binding by fluorescence anisotropy; assay type: biochemical
T1 construct: gene HSP82; purified yeast Hsp90

yeast Hsp90 (Hsp82) [1] = target: T2, yeast Hsp90 (Hsp82) (Saccharomyces cerevisiae, UniProt P02829); assay: BODIPY-GA anisotropy/displacement; GA-bead capture from yeast lysate; assay type: binding
T2 construct: wild-type NMC; coilNMC also measured
T2 sequence (P02829 whole entry): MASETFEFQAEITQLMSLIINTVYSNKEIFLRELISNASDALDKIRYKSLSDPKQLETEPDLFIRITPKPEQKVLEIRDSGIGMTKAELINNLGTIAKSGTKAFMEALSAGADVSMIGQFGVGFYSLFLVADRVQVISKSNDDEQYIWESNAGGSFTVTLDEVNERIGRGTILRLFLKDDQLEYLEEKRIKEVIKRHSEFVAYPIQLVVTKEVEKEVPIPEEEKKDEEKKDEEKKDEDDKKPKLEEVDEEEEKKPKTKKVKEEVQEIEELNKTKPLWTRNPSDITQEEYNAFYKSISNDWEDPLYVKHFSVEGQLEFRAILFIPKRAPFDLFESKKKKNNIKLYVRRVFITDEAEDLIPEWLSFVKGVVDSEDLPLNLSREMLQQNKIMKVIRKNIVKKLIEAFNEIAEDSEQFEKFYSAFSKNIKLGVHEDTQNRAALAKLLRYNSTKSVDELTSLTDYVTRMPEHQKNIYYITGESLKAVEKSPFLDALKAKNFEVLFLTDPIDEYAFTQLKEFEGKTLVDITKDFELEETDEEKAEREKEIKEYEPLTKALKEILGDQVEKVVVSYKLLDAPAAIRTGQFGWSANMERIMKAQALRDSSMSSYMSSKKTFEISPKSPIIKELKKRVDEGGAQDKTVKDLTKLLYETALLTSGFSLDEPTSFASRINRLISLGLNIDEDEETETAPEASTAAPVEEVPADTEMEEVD

Hsp90β = target: T3, Hsp90β (Homo sapiens, UniProt P08238)
T3 construct: gene HSP90AB1
T3 sequence (P08238 2-724): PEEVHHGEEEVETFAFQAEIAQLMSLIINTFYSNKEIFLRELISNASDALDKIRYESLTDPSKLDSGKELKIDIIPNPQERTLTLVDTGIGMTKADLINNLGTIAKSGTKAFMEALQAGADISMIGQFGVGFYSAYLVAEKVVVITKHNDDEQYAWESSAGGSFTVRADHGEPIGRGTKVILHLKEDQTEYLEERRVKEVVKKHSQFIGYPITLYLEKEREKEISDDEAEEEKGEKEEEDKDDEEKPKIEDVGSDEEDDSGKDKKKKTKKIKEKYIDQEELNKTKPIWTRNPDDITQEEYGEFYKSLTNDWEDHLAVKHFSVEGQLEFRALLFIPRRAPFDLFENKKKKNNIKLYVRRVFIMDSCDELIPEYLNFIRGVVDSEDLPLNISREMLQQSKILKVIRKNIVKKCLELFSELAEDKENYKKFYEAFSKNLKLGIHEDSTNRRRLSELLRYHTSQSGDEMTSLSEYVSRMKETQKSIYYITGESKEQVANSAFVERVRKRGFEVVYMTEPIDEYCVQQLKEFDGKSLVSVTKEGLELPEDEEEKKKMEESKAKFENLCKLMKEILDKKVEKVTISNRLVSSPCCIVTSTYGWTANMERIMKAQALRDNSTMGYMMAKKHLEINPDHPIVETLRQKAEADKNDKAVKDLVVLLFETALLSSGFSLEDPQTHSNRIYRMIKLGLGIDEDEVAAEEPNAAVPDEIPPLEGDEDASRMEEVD

yeast Hsp90 (Hsp82) [2] = target: T2, yeast Hsp90 (Hsp82); assay: PU-bead capture from yeast lysate; assay type: cell-based

T1 sequence (P02829 whole entry): as the sequence (P02829 whole entry) above

For `Nc1ncnc2c1ncn2[C@@H]1O[C@H](CO[P@](=O)(O)O[P@](=O)(O)NP(=O)(O)O)[C@@H](O)[C@H]1O` [AMP-PNP], the “DMS cross-linking of N domain dimers; p23 binding by fluorescence anisotropy” value (yeast Hsp90) was “Only AMP-PNP promoted significant N domain dimerization (Figure 2F)”.

In the case of `COC1=C2C[C@@H](C)C[C@H](OC)[C@H](O)[C@@H](C)/C=C(\C)[C@H](OC(N)=O)[C@@H](OC)/C=C\C=C(/C)C(=O)NC(=CC1=O)C2=O` [GA, geldanamycin], the “BODIPY-GA anisotropy/displacement; GA-bead capture from yeast lysate” value (yeast Hsp90 (Hsp82) [1]) is reported as “Coiled-coil yeast Hsp90 (coilNMC) has a similar affinity for GA as wild-type Hsp90 (NMC)” and the “GA-agarose capture of Flag-Hsp90β from 293-H cell lysate” value (Hsp90β) is reported as “GA-beads bound the non-phosphorylatable mutants (Hsp90α-Y197F and Hsp90β-Y192F) similarly to wild-type Hsp90”.

In the case of `CC(C)NCCCn1c(Sc2cc3c(cc2I)OCO3)nc2c(N)ncnc21` [PU, PU-H71], the “PU-bead capture from yeast lysate” value (yeast Hsp90 (Hsp82) [2]) is reported as “both GA- and PU-beads efficiently isolated coiled-coil Hsp90 from yeast lysates, compared to wild-type Hsp90”.
